Test results: patent US6054441A, “Oxypurine nucleosides and their congeners, and acyl derivatives thereof, for improvement of hematopoiesis” (priority 1995, dated 2000)

Tests used:
[1] = test system: hematopoietic recovery after cyclophosphamide; experiment: Hematopoietic recovery after cyclophosphamide (Example 51); type: in vivo, Balb/C mice; settings: day 5; 2 μmoles/mouse
Procedure: Cyclophosphamide (CP) (275 mg/kg, i.p.) was administered to 88 Balb/C female mice weighing approximately 20 grams each. Twenty-four hours later and each day thereafter mice were given a 0.4 ml i.p. injection of either Tween-80 (0.2%) (controls), 3'-O-palmitoyldeoxyguanosine (2 μmoles/mouse), butyryldeoxyguanosine (2 μmoles/mouse), palmitoyl-N-isobutyryldeoxyguanosine (2 μmoles/mouse), lauryldeoxyguanosine (2 μmoles/mouse), octanoyldeoxyguanosine (2 μmoles/mouse), and palmitoyldeoxyguanosine (2 μmoles/mouse). On days 5 and 7 following CP administration 6 or 7 animals in each of the 7 groups were bled and then sacrificed by cervical dislocation. Spleens were removed and weighed, and complete blood cell counts performed.

FDCPmix cells = experiment: Proliferation of FDCPmix cells, MTT assay (Example 69); type: cell-based; settings: for inhibition of proliferation: 10 micrograms/ml down; for activity at 0.01 µg/mL / activity at 0.039 µg/mL / activity at 0.156 µg/mL / activity at 0.625 µg/mL / activity at 2.5 µg/mL / activity at 10 µg/mL: 48 h, read-out: Cell proliferation
Procedure: The FDCPmix cell line was used as a suitable in vitro model for predicting the effects of hematopoietic factors on pluripotential stem cells. These cells can be maintained in an-undifferentiated state in the presence of IL-3 or undergo multi-lineage development in the presence of specific hematopoietic growth factors.
This level of proliferation (100%) served as the control value. Inhibition of proliferation by test compounds was represented as a percent of control.
FDCPmix cells were plated at a density of 5×10^4 cells per well in 96-well plates (5×10^5 /ml) using IMDM medium plus 10% fetal bovine serum. […] Test compounds were added at a decreasing concentrations ranging from 10 micrograms/ml down to 1 nanogram/ml. The test compounds included: 3',5'-O-N^2 -tripalmitoyl-2'-deoxyguanosine, 3',5'-di-O-palmitoyl-2'-deoxyguanosine, 3',5'-O-N^2 -trioctanoyl-2'-deoxyguanosine, 3',5'-di-O-octanoyl-2'-deoxyguanosine, and 3',5'-O-N^2 -trioleyl-2'-deoxyguanosine.

[2] = test system: blood cell counts after cyclophosphamide; experiment: Hematopoietic recovery after cyclophosphamide (Example 63); type: in vivo, Balb-C mice; settings: for Neutrophils / Platelets / WBC / Spleen: 7 days after CP; for Spleen: 25 mg/kg TriPdG or molar equivalent
Procedure: Fifty-eight female Balb-C mice weighing approximately 20 grams each received a single injection of cyclophosphamide (250 mg/kg, i.p.), and were then distributed into a vehicle control group (0.2% Tween-80+7.5% DMSO in saline; n=12) or one of five treatment groups:
Vehicle or treatment agents were administered to mice once daily for five days at a volume of 0.4 ml by i.p. injection. TriPdG was given at a dose of 25 mg/kg/treatment. The other four agents were given in doses that are the molar equivalent of 25 mg/kg/treatment of TriPdG. On days 5 and 7 following CP administration half of the animals from each of the six groups were bled and then sacrificed by cervical dislocation. Five untreated mice were also bled and sacrificed to provide data on normal (basal) values. Spleens were removed and weighed, and complete blood cell counts performed.

[3] = test system: hematopoiesis in normal mice; experiment: Hematopoiesis in normal mice (Example 56); type: in vivo, Balb/C mice; settings: femoral bone marrow; day 5; 2.6 μmoles/mouse, 4 days
Procedure: Normal Balb/C female mice weighing approximately 20 grams each were given a daily 0.4 ml i.p. injection of either physiological saline (controls), palmitoylguanosine (2.6 μmoles/mouse), palmitoyldeoxyguanosine (2.6 μmoles/mouse), monopalmitoylguanosine 2',3'-acyclic dialcohol (2.6 μmoles/mouse), and palmitoyl-8-bromoguanosine (2.6 μmoles/mouse) for 4 days. On the fifth day all 3 animals in each of the 5 groups were bled and then sacrificed by cervical dislocation. Spleens were removed and weighed, and complete blood cell counts performed. Femoral bone marrow from each mouse was collected and a differential cell count performed on marrow smears.

[4] = test system: hematopoietic recovery after cyclophosphamide; experiment: Hematopoietic recovery after cyclophosphamide (Example 47); type: in vivo, Balb/C mice
Procedure: Cyclophosphamide (CP) (275 mg/kg, i.p.) was administered to 48 Balb/C female mice weighing approximately 20 grams each. Twenty-four hours later and each day thereafter for a total of 6 days, mice were given a 0.4 ml i.p. injection of either physiological saline (controls), benzoylguanosine (2.5 μmoles/mouse/day in 0.2% Tween 80), or palmitoylguanosine (2.5 μmoles/mouse/day in 0.2% Tween 80). On days 7 and 10 following CP administration 8 animals from each of the 3 groups were bled and then were sacrificed by cervical dislocation. Spleens were removed and weighed, and complete blood cell counts performed.

[5] = test system: hematopoietic recovery after cyclophosphamide; experiment: Hematopoietic recovery after cyclophosphamide (Example 48); type: in vivo, Balb/C mice; settings: day 7; vs controls
Procedure: Cyclophosphamide (CP) (275 mg/kg, i.p.) was administered to 36 Balb/C female mice weighing approximately 20 grams each. Twenty four hours later and each day thereafter for a total of 4 or 6 days, mice were given a 0.4 ml i.p. injection of either physiological saline (controls), palmitoyldeoxyinosine (2.5 μmoles/mouse), or palmitoylxanthosine (2.5 μmoles/mouse). On days 5 and 7 following CP administration 6 of the 12 animals in each of the 3 groups were bled and then sacrificed by cervical dislocation. Spleens were removed and weighed, and complete blood cell counts performed.

Row | Molecule | inhibition of proliferation (FDCPmix cells) | activity at 0.01 µg/mL (FDCPmix cells) [%] | activity at 0.039 µg/mL (FDCPmix cells) [%] | activity at 0.156 µg/mL (FDCPmix cells) [%] | activity at 0.625 µg/mL (FDCPmix cells) [%] | activity at 2.5 µg/mL (FDCPmix cells) [%] | activity at 10 µg/mL (FDCPmix cells) [%] | Neutrophils [2] | Platelets [2] [K/μl] | WBC [2] | Spleen [2] [mg] | also measured
1 | CCCCCCCCCCCCCCCC(=O)O[C@H]1C[C@H](n2cnc3c(=O)[nH]c(N)nc32)O[C@@H]1CO [3'-O-palmitoyldeoxyguanosine, 3'-O-Palmitoyl-2'-deoxyguanosine] | – | – | – | – | – | – | – | – | – | – | – | spleen weight [1]: significantly elevated; total neutrophil counts [1]: significantly elevated
2 | CCCCCCCC(=O)OC[C@H]1O[C@@H](n2cnc3c(=O)[nH]c(N)nc32)C[C@@H]1OC(=O)CCCCCCC [DiOctdG, 3',5'-di-O-octanoyl-2'-deoxyguanosine] | little or no inhibitory effects | 84 ± 2 | 86 ± 1 | 84 ± 6 | 93 ± 1 | 78 ± 2 | 100 ± 0.3 | – | – | – | – | –
3 | CCCCCCCCCCCCCCCC(=O)OC[C@H]1O[C@@H](n2cnc3c(=O)[nH]c(NC(=O)C(C)C)nc32)C[C@@H]1O [NibuPdG, N^2-isobutyryl-5'-O-palmitoyl-2'-deoxyguanosine] | – | – | – | – | – | – | – | 2.2 ± .5 K/μl | 649 ± 23 | 4.4 ± .5 K/μl | 69 ± 6 | spleen weight [1]: significantly elevated; total neutrophil counts [1]: significantly elevated
4 | CCCCCCCC(=O)Nc1nc2c(ncn2[C@H]2C[C@H](OC(=O)CCCCCCC)[C@@H](COC(=O)CCCCCCC)O2)c(=O)[nH]1 [TriOctdG, 3',5'-O-N^2-trioctanoyl-2'-deoxyguanosine] | little or no inhibitory effects | 87 ± 4 | 85 ± 2 | 89 ± 6 | 86 ± 2 | 96 ± 0.1 | 107 ± 1 | – | – | – | – | –
5 | CCCCCCCC/C=C\CCCCCCCC(=O)Nc1nc2c(ncn2[C@H]2C[C@H](OC(=O)CCCCCCC/C=C\CCCCCCCC)[C@@H](COC(=O)CCCCCCC/C=C\CCCCCCCC)O2)c(=O)[nH]1 [TriOdG, 3',5'-O-N^2-trioleyl-2'-deoxyguanosine] | little or no inhibitory effects | 92 ± 5 | 91 ± 5 | 92 ± 5 | 98 ± 6 | 80 ± 2 | 110 ± 3 | 2.7 ± .4 K/μl | 741 ± 54 | 5.2 ± .4 K/μl | 59 ± 5 | lymphocyte counts ([2]; day 7 after CP, vs control): increased both platelet and lymphocyte counts
6 | CCCCCCCCCCCCCCCCCC(=O)Nc1nc2c(ncn2[C@H]2C[C@H](OC(=O)CCCCCCCCCCCCCCCCC)[C@@H](COC(=O)CCCCCCCCCCCCCCCCC)O2)c(=O)[nH]1 [TriSdG, 3',5'-O-N^2-tristearyl-2'-deoxyguanosine] | – | – | – | – | – | – | – | 5.4 ± .5 K/μl | 498 ± 27 | 7.6 ± .4 K/μl | 85 ± 9 | –
7 | CCCCCCCCCCCCCCCC(=O)OC[C@H]1O[C@@H](n2c(Br)nc3c(=O)[nH]c(N)nc32)[C@H](O)[C@@H]1O [palmitoyl-8-bromoguanosine] | – | – | – | – | – | – | – | – | – | – | – | number of myelocytes [3]: significantly greater
8 | Benzoylguanosine | – | – | – | – | – | – | – | – | – | – | – | Neutrophils ([4]; day 7, 2.5 μmoles/mouse/day): significantly elevated; spleen weight ([4]; day 7, 2.5 μmoles/mouse/day): significantly elevated; total white blood cells ([4]; day 7, 2.5 μmoles/mouse/day): significantly elevated; platelet number ([4]; day 10): significantly greater
9 | Palmitoylxanthosine | – | – | – | – | – | – | – | – | – | – | – | Neutrophils [5]: significantly increased; spleen weight [5]: significantly increased; total leukocytes [5]: significantly increased
